Assay results as given in ChEMBL document CHEMBL4699619, “Development of a Polo-like Kinase-1 Polo-Box Domain Inhibitor as a Tumor Growth Suppressor in Mice Models” (J Med Chem, 2020).
Activity calls are given as the source filed them. No cut-off for these calls is given here. Non-standard residues stand in square brackets, D forms with d. Residues, ends and D or L forms follow the SMILES beside them. pT = C[C@@H](OP(=O)(O)O)[C@H](N)C(=O)O

Key:
[1] = target: T1, Serine/threonine-protein kinase PLK1 (Homo sapiens, UniProt P53350); assay: Displacement of 5-carboxyfluorescein-labeled PBD-binding peptide from PLk1 PBD (unknown origin) expressed in bacterial expression system incubated for 10 mins by fluorescence polarization assay
[2] = target: Serine/threonine-protein kinase PLK3 (Homo sapiens, UniProt Q9H4B4); assay: Displacement of 5-carboxyfluorescein-labeled PBD-binding peptide from PLk3 PBD (unknown origin) expressed in bacterial expression system incubated for 10 mins by fluorescence polarization assay
Homo sapiens = species: Homo sapiens; assay: Selectivity ratio for binding affinity for PLK2 PBD (unknown origin) to binding affinity for PLK1 PBD (unknown origin)
[3] = target: T1, Serine/threonine-protein kinase PLK1; assay: Inhibition PLK1 localization in mitotic kinetochore in human Hela cells at 200 uM after 18 hrs by immunofluorescence analysis relative to control; format: cell-based
HeLa [4] = assay: Induction of cell cycle arrest in human Hela cells assessed as number of cells at G0/G1 phase at 200 uM after 24 hrs by flow cytometry analysis (reference value: 74.14%); format: functional
HeLa [5] = assay: Induction of cell cycle arrest in human Hela cells assessed as number of cells at S phase at 200 uM after 24 hrs by flow cytometry analysis (reference value: 7.86%); format: functional
HeLa [6] = assay: Induction of cell cycle arrest in human Hela cells assessed as number of cells at G2/M phase at 200 uM after 24 hrs by flow cytometry analysis (reference value: 18%); format: functional
HeLa [7] = assay: Induction of apoptosis in human Hela cells assessed as dead cells at 200 uM after 24 hrs by fluorescence microscope analysis relative to control; format: functional
HeLa [8] = assay: Induction of apoptosis in human Hela cells assessed as dead cells at 200 uM after 48 hrs by fluorescence microscope analysis relative to control; format: functional
[9] = Drug uptake in human Hela cells using Cy5-conjugated compound at 200 uM after 18 hrs by fluorescence microscopic analysis; format: ADME, cell-based
[10] = Drug uptake in tumor of BALB/c nu/nu mouse xenografted with Hela cells using Cy5-conjugated compound at 5 mg/kg, iv measured after 48 hrs by fluorescence microscopic analysis; format: ADME, organism-based, Neoplasm; details: in vivo
[11] = Ratio of drug uptake in BALB/c nu/nu mouse xenografted with Hela cells tumor to muscle using Cy5-conjugated compound at 5 mg/kg, iv measured after 48 hrs by fluorescence microscopic analysis; format: ADME, organism-based; details: in vivo
[12] = Ratio of drug uptake in BALB/c nu/nu mouse xenografted with Hela cells tumor to muscle using Cy5-conjugated compound at 5 mg/kg, iv measured after 6 hrs by fluorescence microscopic analysis; format: ADME, organism-based; details: in vivo
[13] = Ratio of drug uptake in BALB/c nu/nu mouse xenografted with Hela cells tumor to muscle using Cy5-conjugated compound at 5 mg/kg, iv measured after 24 hrs by fluorescence microscopic analysis; format: ADME, organism-based; details: in vivo
[14] = Ratio of drug uptake in BALB/c nu/nu mouse xenografted with Hela cells tumor to muscle using Cy5-conjugated compound at 5 mg/kg, iv measured after 30 hrs by fluorescence microscopic analysis; format: ADME, organism-based; details: in vivo
[15] = AUClast in ICR mouse at 5 mg/kg, iv measured upto 24 hrs by LC/MS/MS analysis; format: ADME, organism-based; design: route intravenous, dose 5 mg/kg, time <=24; details: in vivo
[16] = AUC(infinity) in ICR mouse at 5 mg/kg, iv measured upto 24 hrs by LC/MS/MS analysis; format: ADME, organism-based; design: route intravenous, dose 5 mg/kg, time <=24; details: in vivo
[17] = Half life in ICR mouse at 5 mg/kg, iv measured upto 24 hrs by LC/MS/MS analysis; format: ADME, organism-based; details: in vivo
[18] = Clearance in ICR mouse at 5 mg/kg, iv measured upto 24 hrs by LC/MS/MS analysis; format: ADME, organism-based; details: in vivo
[19] = Volume of distribution at steady state in ICR mouse at 5 mg/kg, iv measured upto 24 hrs by LC/MS/MS analysis; format: ADME, organism-based; details: in vivo
[20] = Mean residence time in ICR mouse at 5 mg/kg, iv measured upto 24 hrs by LC/MS/MS analysis; format: ADME, organism-based; details: in vivo
[21] = target: T1, Serine/threonine-protein kinase PLK1; assay: Inhibition of PLK1 PBD interaction with p-Cdc25c in human Hela cells assessed as decrease in phosphorylated Cdc25c co-preciptated with GST-PLK1 PBD by pull down assay; format: cell-based
HeLa [22] = assay: Antitumor activity against human Hela cells xenografted in Balb/c nu nu mouse assessed as decrease in tumor size at 5 mg/kg, iv for 29 days; format: functional, organism-based; details: time 29.0 day
[23] = Toxicity in Balb/c nu nu mouse xenografted with human Hela cells assessed as changed in body weight at 5 mg/kg, iv for 29 days; format: organism-based; details: in vivo, 696 h, time 29 day
[24] = Drug uptake in muscle of BALB/c nu/nu mouse xenografted with Hela cells using Cy5-conjugated compound at 5 mg/kg, iv measured after 48 hrs by fluorescence microscopic analysis; format: ADME, organism-based, Muscle tissue; details: in vivo
HeLa [25] = assay: Induction of cell cycle arrest in human Hela cells assessed as number of cells at G0/G1 phase at 100 nM after 24 hrs by flow cytometry analysis (reference value: 74.14%); format: functional
HeLa [26] = assay: Induction of cell cycle arrest in human Hela cells assessed as number of cells at S phase at 100 nM after 24 hrs by flow cytometry analysis (reference value: 7.86%); format: functional
HeLa [27] = assay: Induction of cell cycle arrest in human Hela cells assessed as number of cells at G2/M phase at 100 nM after 24 hrs by flow cytometry analysis (reference value: 18%); format: functional
HeLa [28] = assay: Induction of apoptosis in human Hela cells assessed as dead cells at 100 nM after 24 hrs by fluorescence microscope analysis relative to control; format: functional
HeLa [29] = assay: Induction of apoptosis in human Hela cells assessed as dead cells at 100 nM after 48 hrs by fluorescence microscope analysis relative to control; format: functional

T1 sequence (P53350 whole entry): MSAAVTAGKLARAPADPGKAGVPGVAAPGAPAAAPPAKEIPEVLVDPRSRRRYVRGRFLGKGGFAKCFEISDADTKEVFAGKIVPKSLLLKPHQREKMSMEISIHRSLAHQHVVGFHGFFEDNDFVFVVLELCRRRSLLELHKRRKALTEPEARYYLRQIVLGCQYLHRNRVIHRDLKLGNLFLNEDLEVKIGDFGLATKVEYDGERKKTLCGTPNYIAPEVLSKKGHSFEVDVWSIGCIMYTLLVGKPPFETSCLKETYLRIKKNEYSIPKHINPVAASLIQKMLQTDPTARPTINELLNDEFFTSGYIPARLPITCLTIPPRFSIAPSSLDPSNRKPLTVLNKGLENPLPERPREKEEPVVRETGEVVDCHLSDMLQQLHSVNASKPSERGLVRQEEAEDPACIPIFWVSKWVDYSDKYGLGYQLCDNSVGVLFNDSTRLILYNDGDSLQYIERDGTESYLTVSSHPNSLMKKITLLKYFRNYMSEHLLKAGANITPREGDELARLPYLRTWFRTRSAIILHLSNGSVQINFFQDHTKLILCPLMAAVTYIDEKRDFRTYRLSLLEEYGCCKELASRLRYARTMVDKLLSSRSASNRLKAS
Serine/threonine-protein kinase PLK3, sequence (Q9H4B4 whole entry): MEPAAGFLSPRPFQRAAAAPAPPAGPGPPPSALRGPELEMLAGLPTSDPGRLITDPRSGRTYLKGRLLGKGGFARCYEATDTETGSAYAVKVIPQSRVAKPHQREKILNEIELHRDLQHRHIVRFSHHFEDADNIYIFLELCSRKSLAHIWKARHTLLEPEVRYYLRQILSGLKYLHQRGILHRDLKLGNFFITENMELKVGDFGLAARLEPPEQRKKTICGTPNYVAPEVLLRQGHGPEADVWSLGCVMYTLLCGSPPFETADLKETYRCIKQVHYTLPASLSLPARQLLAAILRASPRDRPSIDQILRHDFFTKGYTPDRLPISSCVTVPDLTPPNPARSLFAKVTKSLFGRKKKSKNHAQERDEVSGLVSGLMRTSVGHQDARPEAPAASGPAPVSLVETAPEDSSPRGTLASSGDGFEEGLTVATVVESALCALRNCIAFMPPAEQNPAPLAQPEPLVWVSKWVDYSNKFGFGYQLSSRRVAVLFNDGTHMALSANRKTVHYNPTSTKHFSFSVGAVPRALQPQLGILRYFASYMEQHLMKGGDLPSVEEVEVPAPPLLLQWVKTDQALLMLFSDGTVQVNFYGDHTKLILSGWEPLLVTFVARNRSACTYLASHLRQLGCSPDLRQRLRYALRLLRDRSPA

For `CCCN1C(=O)C(=Cc2cn(-c3ccccc3)nc2-c2ccccc2)C(=O)N(CCC)C1=O`, the inhibition [1] was “inactive”.
With `CNc1ccc(C(=O)NCCn2cc(C=C3C(=O)NC(=O)NC3=O)c(-c3ccccc3)n2)cc1` the IC50 [1] was 16.4 µM, the “inhibition (INH)” value [2] was “Not Active” and the Ratio (Homo sapiens) was 2. The inhibition [3] was 61%, the Activity (HeLa [4]) was 54.47% and the Activity (HeLa [5]) was 18.41%. It also gave an Activity (HeLa [6]) of 27.12%, an Activity (HeLa [7]) of 24.6% and an Activity (HeLa [8]) of 71.1%. The Drug uptake [9] was “Active”, the Drug uptake [10] was “Active” and the Ratio [11] was 4.2. For the same molecule, the Ratio [12] was 2.1, the Ratio [13] was 3.9 and the Ratio [14] was 4.11. The AUClast [15] was 11504.31 ng·h/mL, the AUC [16] was 11535.29 ng·h/mL and the t1/2 [17] was 7.73 h. For the same molecule, the CL [18] was 7.17 mL/min/kg, the Vdss [19] was 0.31 L/kg and the MRT [20] was 0.72 h. For the same molecule, the inhibition [21] was “Active”, the Activity (HeLa [22]) was “Active” and the Activity [23] was “Non-Toxic”. The Drug uptake [24] was “Active”.
For `O=C1NC(=O)C(=Cc2cn(CCNC(=O)C3CCCCC3)nc2-c2ccccc2)C(=O)N1`, the inhibition [1] was “inactive”.
For `O=C1C(=Cc2cn(-c3ccccc3)nc2-c2ccccc2)C(=O)N(CCc2ccccc2)C(=O)N1CCc1ccccc1`, the inhibition [1] was “inactive”.
`O=C1NC(=O)C(=Cc2cn(CCN3CCOCC3)nc2-c2ccccc2)C(=O)N1` gave an IC50 [1] of 71 µM.
In the case of `CN1C(=O)C(=Cc2cn(-c3ccccc3)nc2-c2ccccc2)C(=O)N(C)C1=O`, the inhibition [1] is reported as “inactive”.
In the case of `CC[C@H](C)[C@H](NC(=O)[C@H](C)NC(=O)[C@@H](NC(=O)[C@H](CO)NC(=O)[C@H](Cc1cnc[nH]1)NC(=O)[C@H](CC(C)C)NC(=O)[C@@H]1CCCN1C(C)=O)[C@@H](C)OP(=O)(O)O)C(=O)N[C@@H](Cc1ccc(O)cc1)C(=O)N[C@@H](C)C(N)=O` (Ac-PLHS[pT]AIYA-NH2), the IC50 [1] is reported as 0.23 µM.
In the case of `CS(=O)(=O)c1ccc(C(=O)NCCn2cc(C=C3C(=O)NC(=O)NC3=O)c(-c3ccccc3)n2)cc1`, the inhibition [1] is reported as “inactive”.
With `O=C1NC(=O)C(=Cc2cn(Cc3cccc(OC(F)(F)F)c3)nc2-c2ccccc2)C(=O)N1` the inhibition [1] was “inactive”.
Molecule `O=C1NC(=O)C(=Cc2cn(-c3ccccc3)nc2-c2ccccc2)C(=O)N1` has an IC50 [1] of 32.2 µM.
With `CC[C@@H]1C(=O)N(C)c2cnc(Nc3ccc(C(=O)NC4CCN(C)CC4)cc3OC)nc2N1C1CCCC1` [BI-2536] the Activity (HeLa [25]) was 61.34%, the Activity (HeLa [26]) was 9.9% and the Activity (HeLa [27]) was 28.76%. For the same molecule, the Activity (HeLa [28]) was 31.1%, the Activity (HeLa [29]) was 91.5% and the Activity (HeLa [22]) was “Active”. For the same molecule, the Activity [23] was “Non-Toxic”.
For `O=C1NC(=O)C(=Cc2cn(Cc3ccc(OC(F)(F)F)cc3)nc2-c2ccccc2)C(=O)N1`, the inhibition [1] was “inactive”.
For `O=C1NC(=O)C(=Cc2cn(CCCCc3ccccc3)nc2-c2ccccc2)C(=O)N1`, the inhibition [1] was “Active”.
In the case of `CSc1ccc(Cn2cc(C=C3C(=O)NC(=O)NC3=O)c(-c3ccccc3)n2)cc1`, the inhibition [1] is reported as “inactive”.
For `O=C1NC(=O)C(=Cc2cn(CCNC(=O)c3ccccc3)nc2-c2ccccc2)C(=O)N1`, the inhibition [1] was “inactive”.
Molecule `O=C1NC(=O)C(=Cc2cn(Cc3ccccc3)nc2-c2ccccc2)C(=O)N1` has an IC50 [1] of 52.7 µM.
